Test results taken from patent US12227521B2, “CGRP antagonist compounds” (Nxera Pharma UK Limited, priority 2019, dated 2025).

Target: T1, human CGRP receptor (Homo sapiens, UniProt O60894+Q16602)
T1 construct: SK-N-MC endogenously expressing the human CGRP receptor; endogenous in cells; host or cells: SK-N-MC human neuroblastoma cells
Test: cAMP functional assay (HTRF cAMP dynamic-2) in SK-N-MC cells
Assay type: cell-based
Details: SK-N-MC cells endogenously expressing human CGRP receptor; challenge with EC80 human CGRP (0.3 nM); functional pKb converted from pIC50 by modified Cheng-Prussoff equation
Experimental: cAMP production following receptor activation was determined using the Homogeneous Time-Resolved Fluorescence (HTRF) cAMP dynamic-2 assay (Cisbio, France). The human neuroblastoma cell line SK-N-MC endogenously expressing the human CGRP receptor was seeded at a density of 12,500 cells/well in solid walled 96 well half area plates (Costar, Catalog Number 3688, Corning Life Sciences, Germany). After 16 h incubation at 37° C. media was removed and cells were incubated at 37° C. for 30 min in serum free media containing 500 μM IBMX (Tocris, Abingdon, UK, Catalog Number 2845) and increasing concentrations of test antagonist. Following this cells were challenged with an EC80 concentration of human CGRP (0.3 nM) for a further 30 m at 37°) and then cAMP production was determined as manufacturer's instructions before plates were read on a PheraStar fluorescence plate reader (BMG LabTech, Germany). IC50 values were derived from the inhibition curve. The pIC50 values (where pIC50=−log10 IC50) were converted to a functional pKb value using a modified Cheng-Prussoff equation where Kd=agonist EC50 and L hot=agonist challenge concentration. The pKb values of certain compounds of the invention are detailed in Table 5.

T1 sequence (Q16602 23-461): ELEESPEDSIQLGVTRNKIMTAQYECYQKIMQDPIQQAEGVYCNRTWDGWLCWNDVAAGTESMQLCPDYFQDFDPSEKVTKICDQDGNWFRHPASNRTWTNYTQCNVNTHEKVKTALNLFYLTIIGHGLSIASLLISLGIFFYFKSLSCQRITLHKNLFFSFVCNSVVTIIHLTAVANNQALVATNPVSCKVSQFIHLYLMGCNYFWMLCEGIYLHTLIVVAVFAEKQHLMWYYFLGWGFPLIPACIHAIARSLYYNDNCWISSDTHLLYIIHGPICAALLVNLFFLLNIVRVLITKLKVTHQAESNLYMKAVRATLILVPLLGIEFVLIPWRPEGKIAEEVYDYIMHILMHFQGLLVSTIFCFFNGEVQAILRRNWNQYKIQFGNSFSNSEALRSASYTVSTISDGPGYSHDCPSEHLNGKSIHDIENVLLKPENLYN
T1 sequence (O60894 27-148): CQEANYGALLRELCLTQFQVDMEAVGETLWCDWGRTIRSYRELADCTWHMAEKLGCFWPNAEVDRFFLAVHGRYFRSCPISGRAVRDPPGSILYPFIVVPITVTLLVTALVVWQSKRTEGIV

Kb: 6.31 pM
SMILES: C[C@@H]1[C@H](c2c(F)ccc(F)c2F)C[C@@H]2NC(=O)c3cnc4c(c3)C[C@@]3(C4)C(=O)Nc4ncc(cc43)/C=C/COCCOCCN1C2=O (single isomer, unassigned) [1-1 Isomer 1]
